These are literature values, as cited in paper PMC4844938 (Molecules and Cells, 2016).

In this data set the test system is RANKL. To be noted: ref Ta et al., 2010.

As a reminder, the Kd is a measure of binding affinity in units of concentration. With “1-YC WNSDCECCYRR-13 (bicyclic or more) [L3-3]”, where the note is “previous work”, the “affinity for RANKL relative to OP3-4” value is on record as “higher affinity for RANKL as compared to OP3-4”. Also, for the setting “read-out: Kd for RANKL, reported in previous work”, the Kd was 17.3 µM.
